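Tested at 5 concentrations; 48 h exposure; 96-well plates; endpoints linearly interpolated, else capped at highest concentration. GI50: concentration for 50% inhibition of growth.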 The source made the active and inactive calls. No stated cut-off is given here; in the data, active = GI50 up to about 1.1 µM and inactive = higher.
What was measured:
Assay in all cases: DTP human tumour cell line panel, 48 h
[1] = tested on: EKVX
[2] = tested on: TK-10
[3] = tested on: SK-MEL-2
[4] = tested on: U-251
[5] = tested on: SK-OV-3
[6] = tested on: HOP-62
[7] = tested on: M19-MEL
[8] = tested on: SNB-19
[9] = tested on: HOP-18
[10] = tested on: COLO 205
[11] = tested on: NCI-H23
[12] = tested on: SNB-78
[13] = tested on: RPMI-8226
[14] = tested on: OVCAR-4
[15] = tested on: KM12
[16] = tested on: UACC-62
[17] = tested on: DMS-114
[18] = tested on: UO-31
[19] = tested on: KM-20L2
[20] = tested on: DMS-273
[21] = tested on: NCI-H226
[22] = tested on: XF498
[23] = tested on: HCT-116
[24] = tested on: NCI-H522
[25] = tested on: A549
[26] = tested on: OVCAR-3
[27] = tested on: HT-29
[28] = tested on: SK-MEL-5
[29] = tested on: 786-0
[30] = tested on: HOP-92
[31] = tested on: SF-295
[32] = tested on: CAKI-1
[33] = tested on: LXFL 529
[34] = tested on: M14
[35] = tested on: Malme-3M
[36] = tested on: NCI-H460
[37] = tested on: ACHN
[38] = tested on: HCT-15
[39] = tested on: RXF 393
[40] = tested on: HCC 2998
[41] = tested on: SN12C
[42] = tested on: SF-268
[43] = tested on: SNB-75
[44] = tested on: HL-60
[45] = tested on: DLD-1
[46] = tested on: SR
[47] = tested on: UACC-257
[48] = tested on: IGROV-1
[49] = tested on: SK-MEL-28
[50] = tested on: OVCAR-8
[51] = tested on: MOLT-4
[52] = tested on: K562
[53] = tested on: A498
[54] = tested on: SW-620
[55] = tested on: OVCAR-5
[56] = tested on: SF-539
[57] = tested on: CCRF-CEM
[58] = tested on: LOX IMVI
[59] = tested on: RXF 631

CCCCCCCCCC1CC(=O)Oc2cccc(O)c21 (centres undefined)
GI50 [1]: 40.7 µM (inactive)
GI50 [2]: 36.2 µM (inactive)
GI50 [3]: 20.6 µM (inactive)
GI50 [4]: 2.72 µM (inactive)
GI50 [5]: 7.69 µM (inactive)
GI50 [6]: 34.3 µM (inactive)
GI50 [7]: 31.3 µM (inactive)
GI50 [8]: 3.7 µM (inactive)
GI50 [9]: 51.4 µM (inactive)
GI50 [10]: 16.4 µM (inactive)
GI50 [11]: 3.31 µM (inactive)
GI50 [12]: 42 µM (inactive)
GI50 [13]: 28.4 µM (inactive)
GI50 [14]: 33.7 µM (inactive)
GI50 [15]: 12.5 µM (inactive)
GI50 [16]: 31.5 µM (inactive)
GI50 [17]: 15.7 µM (inactive)
GI50 [18]: 19.5 µM (inactive)
GI50 [19]: 31.3 µM (inactive)
GI50 [20]: 4.03 µM (inactive)
GI50 [21]: 6.84 µM (inactive)
GI50 [22]: 21.6 µM (inactive)
GI50 [23]: 36.2 µM (inactive)
GI50 [24]: 20.9 µM (inactive)
GI50 [25]: 11.5 µM (inactive)
GI50 [26]: 16.3 µM (inactive)
GI50 [27]: 24.1 µM (inactive)
GI50 [28]: 15.2 µM (inactive)
GI50 [29]: 10.1 µM (inactive)
GI50 [30]: 34 µM (inactive)
GI50 [31]: 11.6 µM (inactive)
GI50 [32]: 32.7 µM (inactive)
GI50 [33]: 24.4 µM (inactive)
GI50 [34]: 22.7 µM (inactive)
GI50 [35]: 18.7 µM (inactive)
GI50 [36]: 9.91 µM (inactive)
GI50 [37]: 30.3 µM (inactive)
GI50 [38]: 23.4 µM
GI50 [39]: 23.8 µM (inactive)
GI50 [40]: 1.23 µM (inactive)
GI50 [41]: 6.85 µM (inactive)
GI50 [42]: 30.3 µM (inactive)
GI50 [43]: 40 µM (inactive)
GI50 [44]: 27.9 µM (inactive)
GI50 [45]: 27.9 µM (inactive)
GI50 [46]: 23.2 µM (inactive)
GI50 [47]: 41.3 µM (inactive)
GI50 [48]: 20.9 µM (inactive)
GI50 [49]: 29.6 µM (inactive)
GI50 [50]: 31.8 µM (inactive)
GI50 [51]: 26.7 µM (inactive)
GI50 [52]: 24 µM (inactive)
GI50 [53]: 22.1 µM (inactive)
GI50 [54]: 29.2 µM (inactive)
GI50 [55]: 28.3 µM (inactive)
GI50 [56]: 4.18 µM (inactive)
GI50 [57]: 27.4 µM (inactive)
GI50 [58]: 14 µM (inactive)
GI50 [59]: 0.617 µM (active)

From ChEMBL document CHEMBL1201862, “PubChem BioAssay data set” (2004)
